Laboratory results reported in US20210161146A1, “COMPOSITIONS AND METHODS FOR INHIBITING PATHOGENS ON PLANTS” (CH2O INCORPORATED, priority 2018, published 2021).

Experiments:
Jack Frost Blight = experiment: Orchard #6 field treatment of blight-infected apple trees; format: in vivo
Method: Apple trees at Orchard #6 infected with Jack Frost Blight (FIGS. 9A, 9B and 9C) were treated with 2 ppm (FIG. 10A), 5 ppm, 10 ppm (FIG. 10B) or 25 ppm (FIG. 10C) of ClO2. While blight was easily found in untreated areas of the block, only 2 strikes were found in the 2 ppm test area, no strikes were found in the 5 ppm area, 1 strike was found in the 10 ppm area, and 1 strike was found at the very end of the 25 ppm area (it is unclear whether that part of the area was actually treated or treated fully).

[1] = tested on: Red Blotch Virus (Grablovirus or GRBav); experiment: Field trials on grape vines infected with Red Blotch Virus; format: in vivo
Method: Field trials were performed on grape vines infected with Red Blotch Virus (Grablovirus or GRBav).
Grape vines were treated with (36% 36% hydrochloric acid, 8% 60% active HEDPA, 0.5% 120 grain vinegar, 0.5% 85% phosphoric acid, and 55% water, all by weight) and (3.1% 60% active HEDPA, 1.6% 45% active potassium hydroxide, […], all by weight). ClO2 was made using a CH2O-ClO2 generator, and applied using an orchard sprayer. 200 gallons of treated water was applied per acre, and the treated water contained 15 ppm ClO2. The air temperature was 70° F.-90° F. on the days of application.
Half of the treated rows were pruned with shears dipped in water containing 30 to 50 ppm chlorine bleach.

[2] = tested on: Erwinia amylovora ("Fire Blight"); experiment: Field experiment in apple and pear tree orchard infected with Fire Blight; format: in vivo
Method: An apple and pear tree orchard infected with Erwinia amylovora (“Fire Blight”) was treated with 2 ppm, 5 ppm, 10 ppm, and 25 ppm ClO2 as described herein. Previous unsuccessful treatments included foliar medications and metal (Cu) suspended in oil, and Tetramyacin and Oxytetracycline application. These are very expensive medication option(s) that are becoming obsolete w/resistance.
The treatment protocol at this orchard included a three step approach: a) irrigation water; b) topical application before first bloom (e.g., begin topical treatment before primary bloom event and all the way through second blooming event); and c) ooze treatment/vector suppression. Given the timing of this trial, only step C is relevant.
Trees were sprayed when the temperature reached a minimum of 50° F. The temperature for treating bacterial ooze should be between 75-90° F., with highest “safe” rates of ClO2 used to prevent spread through insect and pollination activity. The residual phosphorus (from phosphonates) should have lasting protection properties even days after a topical application.
Rows were marked based on the concentration of ClO2 to be applied. Each concentration rate was applied slowly over four rows of trees. Two rows of trees were left untreated between each of the treated rows to prevent drift. After an application at a particular concentration was complete, the pump speed was increased or decreased to adjust the ClO2 concentration for the next application.

[3] = tested on: Erwinia amylovora ("Fire Blight"); details: before the ClO2 trial; cited from earlier work

[O][Cl+][O-] [ClO2, chlorine dioxide]
blight strikes found in test area (Jack Frost Blight; 2 ppm ClO2 test area): 2 strikes | blight strikes found in test area (Jack Frost Blight; 5 ppm ClO2 area): no strikes | blight strikes found in test area (Jack Frost Blight; 10 ppm ClO2 area): 1 strike | blight strikes found in test area (Jack Frost Blight; 25 ppm ClO2 area, very end (unclear whether treated fully)): 1 strike | less GRBav than the untreated control area ([1]; 15 ppm ClO2, 200 gallons per acre, pruned with ClO2-sanitized shears): approximately 85% | less virus than the untreated control area ([1]; 15 ppm ClO2, 200 gallons per acre, pruned with shears dipped in chlorine bleach): approximately 75% | reduction in the amount of virus on the grape plants ([1]; 15 ppm ClO2, both pruning groups): 75-85% | new blight strikes observed ([2]; 2 ppm zone): One | new blight found ([2]; remaining test zones (5 ppm, 10 ppm, 25 ppm)): no new blight | ClO2 concentration effective for disease control ([2]; topical spray on infected trees): ≥ 5 ppm

Tetramyacin
outcome of previous treatments of the orchard [3]: unsuccessful
